In US5656604A, “Peptide compound and its preparation” (Fujisawa Pharmaceutical Co., Ltd., priority 1990, dated 1997):

Tested on: rabbit thoracic aorta contraction induced by endothelin
Description: Thoracic aorta were isolated from freshly killed male albino rabbits (11 weeks old) and cut into 25 mm strips with the intima denuded. After removing fatty tissues, these arterial segments (2 mm width and 25 mm length) were suspended in 25 ml organ chambers filled with Krebs-Ringer solution (113 mM NaCl, 4.8 mM KCl, 2.2 mM CaCl2, 1.2 mM MgCl2, 25 mM NaHCO3, 1.2 mM KH2 PO4, 5.5 mM glucose) maintained at 37° C. and gassed with 95% O2 /5% CO2.
A preload of 0.5 g was applied after the aorta had been conditioned by application of increasing concentration of KCl. Contractions were measured as an increase in isometric tension.
Test Compound was tested against contractile response of rabbit aorta induced by endothelin (3.2×10^-9 M). […] Test Compound was added after the full contraction response induced by endothelin.

CC(C)C[C@H](NC(=O)NC1CCCCC1)C(=O)N[C@H](Cc1cn(C)c2ccccc12)C(=O)N[C@H](Cc1ccccn1)C(=O)O [A]
IC50: 230 nM
